Reference: patent US7479489B2, “Heterocyclic antiviral compounds” (Roche Palo Alto LLC, priority 2004, dated 2009)

Compound	melting point
CC(C)CCN1C(=O)C(C2=CS(=O)(=O)c3ccccc3N2)=C(O)[C@@H]1C1CCCCC1	98 to 100 °C
CS(=O)(=O)Nc1ccc2c(c1)S(=O)(=O)C=C(c1c(O)c3cc(F)ccc3n(Cc3ccncc3)c1=O)N2.O=C(O)C(F)(F)F	167 to 169 °C
O=C1C(C2=CS(=O)(=O)c3ccccc3N2)=C(O)[C@H](C2CCCCC2)N1Cc1ccc(F)cc1.[Na]	> 250 °C
CNC(=O)Nc1ccc2c(c1)S(=O)(=O)C=C(c1c(O)c3cc(F)ccc3n(CCC3CC3)c1=O)N2	> 220 °C
Nc1ccc2c(c1)S(=O)(=O)C=C(c1c(O)c3cc(F)ccc3n(Cc3ccc(F)cc3)c1=O)N2	> 250 °C
O=c1c(C2=CS(=O)(=O)c3cc(NS(=O)(=O)c4ccccc4)ccc3N2)c(O)c2cc(F)ccc2n1CCC1CC1	> 200 °C
CC(C)CCn1c(=O)c(C2=CS(=O)(=O)c3ccc(C#N)cc3N2)c(O)c2ccccc21	> 250 °C
CC(C)C[C@H]1C(O)=C(C2=CS(=O)(=O)c3ccccc3N2)C(=O)N1Cc1ccc(F)cc1	160 °C (dec.)
Nc1ccc2c(c1)S(=O)(=O)C=C(c1c(O)c3ccccc3n(CCC3CC3)c1=O)N2	> 250 °C
CC(C)(C)[C@H]1C(O)=C(C2=CS(=O)(=O)c3cc(NS(C)(=O)=O)ccc3N2)C(=O)N1CCC1CC1	140 to 145 °C
CCCS(=O)(=O)Nc1ccc2c(c1)S(=O)(=O)C=C(c1c(O)c3cc(F)ccc3n(CCC3CC3)c1=O)N2.[Na]	> 250 °C
O=c1c(C2=CS(=O)(=O)c3ccccc3N2)c(O)c2ccccc2n1Cc1ccccc1F	> 200 °C
Cc1ccc2c(c1)c(O)c(C1=CS(=O)(=O)c3ccccc3N1)c(=O)n2Cc1ccc(F)cc1.[Na]	> 250 °C
CN(c1ccc2c(c1)S(=O)(=O)C=C(c1c(O)c3cc(F)ccc3n(CCC3CC3)c1=O)N2)S(C)(=O)=O	208 to 212 °C
CC(C)(C)[C@H]1C(O)=C(C2=CS(=O)(=O)c3cc([N+](=O)[O-])ccc3N2)C(=O)N1Cc1ccc(F)cc1	138 to 147 °C
O=c1c(C2=CS(=O)(=O)c3cc(OCc4ccccc4)ccc3N2)c(O)c2cc(F)ccc2n1Cc1ccc(F)cc1	242 to 244 °C
O=c1c(C2=CS(=O)(=O)c3cc(NS(=O)(=O)C4CC4)ccc3N2)c(O)c2cc(F)ccc2n1CCC1CC1	145 to 155 °C
COc1cc(CN2C(=O)C(C3=CS(=O)(=O)c4cc(NS(C)(=O)=O)ccc4N3)=C(O)[C@@H]2C(C)(C)C)ccc1F	175 to 180 °C
CN(C)C(=O)COc1ccc2c(c1)S(=O)(=O)C=C(c1c(O)c3cc(F)ccc3n(Cc3ccc(F)cc3)c1=O)N2	> 250 °C
Cc1noc(C)c1S(=O)(=O)Nc1ccc2c(c1)S(=O)(=O)C=C(c1c(O)c3cc(F)ccc3n(CCC3CC3)c1=O)N2	150 to 157 °C
CS(=O)(=O)Nc1ccc2c(c1)S(=O)(=O)C=C(c1c(O)c3cc(F)ccc3n(Cc3cccnc3)c1=O)N2	174 to 186 °C
CC[C@H](C)[C@H]1C(O)=C(C2=CS(=O)(=O)c3ccccc3N2)C(=O)N1CCC(C)C	72 to 80 °C
CC(C)CCN1C(=O)C(C2=CS(=O)(=O)c3ccccc3N2)=C(O)[C@@H]1C(C)(C)C	85 to 87 °C
CN(c1ccc2c(c1)S(=O)(=O)C=C(c1c(O)c3cc(F)ccc3n(Cc3ccc(F)cc3)c1=O)N2)S(C)(=O)=O	214 to 218 °C
CNC(=O)COc1ccc2c(c1)S(=O)(=O)C=C(c1c(O)c3cc(F)ccc3n(Cc3ccc(F)cc3)c1=O)N2	> 240 °C
CC(=O)Nc1ccc2c(c1)S(=O)(=O)C=C(c1c(O)c3cc(F)ccc3n(Cc3ccc(F)cc3)c1=O)N2	> 250 °C
COC(=O)COc1ccc2c(c1)S(=O)(=O)C=C(c1c(O)c3cc(F)ccc3n(Cc3ccc(F)cc3)c1=O)N2	200 to 207 °C

Compound	melting point
CS(=O)(=O)Nc1ccc2c(c1)S(=O)(=O)C=C(c1c(O)c3cc(F)ccc3n(Cc3ccc(F)c(Cl)c3)c1=O)N2	166 to 174 °C
CC(C)CCn1c(=O)c(C2=CS(=O)(=O)c3ccccc3N2)c(O)c2cc(F)cnc21	90 to 112 °C
NC(=O)CCOc1ccc2c(c1)S(=O)(=O)C=C(c1c(O)c3cc(F)ccc3n(CCC3CC3)c1=O)N2	> 250 °C
COc1ccc2c(c1)S(=O)(=O)C=C(c1c(O)c3cc(F)ccc3n(Cc3ccc(F)cc3)c1=O)N2	> 250 °C
CC[C@H](C)[C@H]1C(O)=C(C2=CS(=O)(=O)c3ccccc3N2)C(=O)N1Cc1ccccc1	88 to 95 °C
CS(=O)(=O)Nc1ccc2c(c1)S(=O)(=O)C=C(c1c(O)c3cc(F)ccc3n(Cc3ccc(F)c(F)c3)c1=O)N2	148.2 to 149.4 °C
CS(=O)(=O)Nc1ccc2c(c1)S(=O)(=O)C=C(c1c(O)c3cc(F)ccc3n(CCC3CC3)c1=O)N2.[Na]	> 250 °C
N#Cc1cccc(Cn2c(=O)c(C3=CS(=O)(=O)c4ccccc4N3)c(O)c3cc(F)ccc32)c1.[Na]	> 250 °C
CC(C)CCn1c(=O)c(C2=CS(=O)(=O)c3ccc(Cl)cc3N2)c(O)c2ccccc21	90 to 110 °C
O=c1c(C2=CS(=O)(=O)c3ccccc3N2)c(O)c2cc(F)ccc2n1Cc1ccc(F)c(F)c1.[Na]	230 to 235 °C
CCCS(=O)(=O)Nc1ccc2c(c1)S(=O)(=O)C=C(c1c(O)c3cc(F)ccc3n(CCC3CC3)c1=O)N2	145 to 150 °C
O=c1c(C2=CS(=O)(=O)c3ccccc3N2)c(O)c2cc(Cl)ccc2n1CCC1CC1	227 to 229 °C
COc1ccc2c(c1)c(O)c(C1=CS(=O)(=O)c3ccccc3N1)c(=O)n2CCC1CC1	220 to 221 °C
CS(=O)(=O)Nc1ccc2c(c1)S(=O)(=O)C=C(c1c(O)c3cc(F)ccc3n(CC3CCCCC3)c1=O)N2	184 to 203 °C
CC(C)CCn1c(=O)c(C2=CS(=O)(=O)c3ccccc3N2)c(O)c2cc(Cl)ccc21	194 to 197 °C
CC(C)(C)[C@H]1C(O)=C(C2=CS(=O)(=O)c3cc(N)ccc3N2)C(=O)N1CCC1CC1	105 to 110 °C
O=C1C(C2=CS(=O)(=O)c3ccccc3N2)=C(O)[C@H](C2CCCCC2)N1Cc1ccc(F)cc1	180 °C (dec.)
CS(=O)(=O)Nc1ccc2c(c1)S(=O)(=O)C=C(c1c(O)c3cc(F)ccc3n(Cc3ccc(F)c(C(F)(F)F)c3)c1=O)N2	185.8 to 187 °C
Cc1ccc2c(c1)c(O)c(C1=CS(=O)(=O)c3ccccc3N1)c(=O)n2Cc1ccc(F)cc1	247 to 249 °C
CC(C)CCn1c(=O)c(C2=CS(=O)(=O)c3cc(NS(C)(=O)=O)ccc3N2)c(O)c2cc(F)ccc21	205 to 219 °C
CN1C(c2nc(Cc3ccc(F)cc3)c3ccccc3c2O)=CS(=O)(=O)c2cc(Cl)ccc21	> 275 °C
CC(C)(C)[C@H]1C(O)=C(C2=CS(=O)(=O)c3cc(NS(N)(=O)=O)ccc3N2)C(=O)N1Cc1ccc(F)cc1	150 to 156 °C
N#Cc1cccc(Cn2c(=O)c(C3=CS(=O)(=O)c4ccccc4N3)c(O)c3cc(F)ccc32)c1	> 250 °C
O=c1c(C2=CS(=O)(=O)c3ccccc3N2)c(O)c2cc(F)ccc2n1Cc1ccc(F)c(F)c1	230 to 235 °C
CC(C)(C)[C@H]1C(O)=C(C2=CS(=O)(=O)c3cc(N)ccc3N2)C(=O)N1Cc1ccc(F)cc1	146 to 155 °C
CN1C(c2nc(Cc3ccc(F)cc3)c3ccc(F)cc3c2O)=CS(=O)(=O)c2cc(Cl)ccc21	254 to 256 °C
